≈ marks a conversion by molar mass, not a printed value. Where two headings read alike, the source gives them in different places.
Legend:
[1] = target: IκB-α kinase; experiment: IκB-α kinase assay (filter assay of affinity enriched IκB-α kinase from LPS-activated HUVEC lysate); assay type: biochemical, human; conditions: Table 11, Enzyme Activity of Selected Compounds
[2] = target: CDK2 (Homo sapiens, UniProt P24941); experiment: biochemical; conditions: concentration required to inhibit CDK2 activity by 50%; 30 µM ATP, histone H1, 30°C for 30 min; read-out: IC50 (µg/mL) enzyme (converted)
Description: Compounds of this invention were assayed to determine their CDK2 inhibitory activity. The assay system (total volume of 50 µl) contained 50 mM Tris-HCl, pH 7.4, 10 mM MgCl2, 5 mM DTT, 1 µg of histone H1, 30 µM ATP (1 µCi of gamma^32P labeled ATP), 10 µg of BSA and 1 ng of purified CDK2. After incubation at 30°C for 30 min, the reaction was terminated by the addition of 10 µl of 10% TCA and the samples were blotted onto nitrocellulose filters. These filters were washed extensively in 10% TCA and assayed for radioactivity. Blanks contained no enzyme. […] After incubation at 30 min., the assay tubes were processed as above.

[3] = test system: rat aortic smooth muscle cells; experiment: tissue or blood; assay type: cell-based; conditions: read-out: IC50 (µg/mL) cells
Description: (§1) Early passage rat aortic smooth muscle cells (CV Therapeutics Cell repository) were seeded in 48 well dishes (Falcon, […]) at a density of 20,000 cells/ml of DME containing 5% heat inactivated bovine serum. The cells were incubated in a standard tissue culture incubator for 48 hr. The medium was aspirated and the wells were replenished with 0.2 ml of fresh medium. […]

[4] = test system: P388 - mouse lymphoid neoplasm; experiment: Cell proliferation assay, P388; assay type: cell-based; conditions: P388 cells, read-out: IC50 (µg/ml) for Inhibition of Cell Proliferation P 388
[5] = test system: Pancl human pancreatic adenocarcinoma; experiment: Cell proliferation assay, Pancl; assay type: cell-based; conditions: Pancl cells, read-out: IC50 (µg/ml) for Inhibition of Cell Proliferation Panel
Description: as §1
(§2) Similar assays were performed using the following cell lines: P388 - mouse lymphoid neoplasm; L1210 - mouse lymphocytic leukemia; Caco2 human colon adenocarcinoma; MCF7 human breast adenocarcinoma; PupVSMC rat neonatal aortic smooth muscle cells; Ovcar human ovarian Carcinoma; Pancl human pancreatic adenocarcinoma; and HUVEC human umbilical cord endothelial cells.

[6] = test system: Ovcar human ovarian Carcinoma; experiment: Cell proliferation assay, Ovcar; assay type: cell-based; conditions: Ovcar cells, read-out: IC50 (µg/ml) for Inhibition of Cell Proliferation OvC ar
Description: as §1, §2

[7] = test system: PupVSMC rat neonatal aortic smooth muscle cells; experiment: Cell proliferation assay, PupVSMC; assay type: cell-based
Description: (§3) Early passage rat aortic smooth muscle cells (CV Therapeutics Cell repository) were seeded in 48 well dishes (Falcon, […]) at a density of 20,000 cells/ml of DME containing 5% heat inactivated bovine serum. The cells were incubated in a standard tissue culture incubator for 48 hr. The medium was aspirated and the wells were replenished with 0.2 ml of fresh medium. Compounds of this invention were added at concentrations ranging from 100 to 0.37 µg/ml. After 48 hr incubation, the medium was aspirated and the cultures were treated with 0.2 ml of saline and 0.25 µl of phenazine methosulfate solution containing MTS (Cell Titer 96® Aqueous Non-radioactive cell proliferation assay kit, Catalog # G 5430, Promega, 2800 Woods Hollow Road, Madison, WI 53711-5399). […]
as §2

[8] = test system: neointima formation following balloon angioplasty in the rat carotid artery; experiment: Neointima formation following balloon angioplasty, rat carotid artery model; assay type: in vivo; conditions: 14 days recovery
Excerpt: In this example, the left common carotid arteries of adult male rats (n=10 per experimental group) were surgically injured using a Fogarty arterial embolectomy catheter. Immediately after injury, the common carotid artery was bisected with a vascular clamp, thereby establishing an untreated and treated segment. A drug delivery catheter was then inserted into the distal half of the common carotid. After drug delivery, the catheter was removed and excess drug was washed out by removing the vascular clamp and re-establishing blood flow before closing the artery. […] The harvested tissue was sectioned and the neointimal area was digitized and measured with a computer planimetry system.

[9] = test system: Caco2 human colon adenocarcinoma; experiment: cells; assay type: cell-based; conditions: Caco-2, read-out: IC50 (µg/ml) for Inhibition of Cell Proliferation Caco 2
Description: as §3, §2

[10] = test system: L1210 - mouse lymphocytic leukemia; experiment: cells; assay type: cell-based; conditions: read-out: IC50 (µg/ml) for Inhibition of Cell Proliferation L 120
Description: as §3, §2

[11] = test system: MCF7 human breast adenocarcinoma; experiment: Cell proliferation assay, MCF7; assay type: cell-based; conditions: MCF7 cells, read-out: IC50 (µg/ml) for Inhibition of Cell Proliferation MCF 7
Description: as §1, §2

[12] = test system: mammalian cells in culture; conditions: literature; cited from earlier work
[13] = inhibitory activity against the cell line, Table 9, unit inferred, read-out: PupVSMC

Question: For `CC(C)n1cnc2c(Nc3cccc(-c4ccc(C#N)cc4)c3)nc(N(CCO)CCO)nc21`, which IC50 [1] is on record?
Answer: 2.2 µM

Question: For `CC(C)n1cnc2c(NCc3ccc(-c4ccccn4)cc3)nc(N(CCO)CCO)nc21`, which IC50 [1] is on record?
Answer: 4.5 µM

Question: With `COc1cccc(-c2ccc(CNc3nc(N(CCO)CCO)nc4c3ncn4C(C)C)cc2)c1` as the compound, how does the IC50 [1] read?
Answer: > 10 µM

Question: For `COc1ccc(-c2ccc(CNc3nc(N(CCO)CCO)nc4c3ncn4C(C)C)cc2)cc1`, which IC50 [1] is on record?
Answer: 11 µM

Question: With `CC(C)n1cnc2c(Nc3ccc(Br)cc3)nc(N(CCO)CCO)nc21` as the compound, how does the IC50 [1] read?
Answer: 14 µM

Question: Which IC50 [2] does the source give for `COC(=O)c1ccc(Cn2cnc3c(NCc4ccc(OC)cc4)nc(Cl)nc32)cc1` here?
Answer: > 137 µM

Question: With `COc1ccc(CNc2nc(N(CCO)CCO)nc3c2ncn3C(C)C)cc1` as the compound, how does the IC50 ([3]; Rattus norvegicus, 48 h) read?
Answer: 2.1 µg/mL (≈ 5.24 µM)

Question: With `COc1ccc(CNc2nc(Cl)nc3c2ncn3C(F)(F)F)cc1` as the compound, how does the IC50 [2] read?
Answer: > 168 µM

Question: With `CCN(CC)c1nc(NCc2ccc(-c3ccccc3)cc2)c2ncn(C(C)C)c2n1` as the compound, how does the IC50 [1] read?
Answer: > 2.4 µM

Question: With `CC(C)n1cnc2c(NCc3ccc(-c4ccccc4)cc3)nc(NCCO)nc21` as the compound, how does the IC50 [1] read?
Answer: 2.5 µM

Question: With `CC(C)n1cnc2c(NCc3ccc(Cl)cc3)nc(N(CCN)CCO)nc21` as the compound, how does the IC50 ([3]; concentration required to inhibit cell proliferation by 50%, rat aortic smooth muscle cells, 48 hr incubation, MTS) read?
Answer: 0.2 µg/mL (≈ 0.495 µM)

Question: With `CC(C)n1cnc2c(NCc3ccc(Cl)cc3)nc(NCCNCCO)nc21` as the compound, how does the IC50 [2] read?
Answer: 5 µM

Question: With `CC(C)n1cnc2c(NCc3ccc(S(N)(=O)=O)cc3)nc(NCCN)nc21` as the compound, how does the IC50 [2] read?
Answer: 22.2 µM

Question: Which IC50 [2] does the source give for `CC(C)Cn1cnc2c(NCc3ccc(C(F)(F)F)cc3)nc(N(CCO)CCO)nc21` here?
Answer: 130 µM

Question: For `CC(C)n1cnc2c(NCc3ccc(C(F)(F)F)cc3)nc(N(CCO)CCO)nc21`, which IC50 [2] is on record?
Answer: 1.28 µM

Question: With `COc1ccc(CNc2nc(N3CCOCC3)nc3c2ncn3C(C)C)cc1` as the compound, how does the IC50 [4] read?
Answer: > 5 µg/mL

Question: And the IC50 [5]?
Answer: 5.5 µg/mL (≈ 14.4 µM)

Question: What about the IC50 [6] of the same compound?
Answer: 4 µg/mL (≈ 10.5 µM)

Question: For `CC(C)n1cnc2c(NCc3ccc(Cl)cc3)nc(N(CCN)CCO)nc21` [2-[(2-aminoethyl)(6-{[(4-chlorophenyl)methyl]amino}-9-(methylethyl)purin-2-yl)amino]ethan-1-ol], which IC50 [7, 13] is on record?
Answer: 0.3 µg/mL (≈ 0.743 µM)

Question: Which IC50 [7, 13] does the source give for `CC(C)n1cnc2c(NCc3ccc(Cl)cc3)nc(N(CCO)CCO)nc21` [2-[(2-hydroxyethyl)(6-{[(4-chlorophenyl)methyl]amino}-9-(methylethyl)purin-2-yl)amino]ethan-1-ol] here?
Answer: 0.3 µg/mL (≈ 0.741 µM)

Question: With `CC(C)n1cnc2c(NCc3ccc(-c4ccccc4)cc3)nc(N(CCO)CCO)nc21` [2-diethanolamino-6-(4-phenylbenzylamino)-9-isopropyl purine] as the compound, how does the IC50 [4] read?
Answer: < 1 µg/mL

Question: What about the IC50 [5] of the same compound?
Answer: 1.3 µg/mL (≈ 2.91 µM)

Question: And the IC50 [1]?
Answer: 1.1 µM

Question: For `Clc1ccc(COc2nc(Cl)nc3[nH]cnc23)cc1` [4-chlorobenzyloxy; H; C1], which IC50 [2] is on record?
Answer: 203 µM

Question: For `Cn1cnc2c(OCc3ccc(Cl)cc3)nc(Cl)nc21` [4-chlorobenzyloxy; Me; C1], which IC50 [2] is on record?
Answer: 194 µM

Question: With `COc1ccc(CNc2nc(Cl)nc3c2ncn3CC(C)C)cc1` [4-methoxybenzylamino; 2-methylpropyl; C1] as the compound, how does the IC50 [2] read?
Answer: 173 µM

Question: For `COc1ccc(CNc2nc(Cl)nc3[nH]cnc23)cc1` [4-methoxybenzylamino; H; C1], which IC50 [2] is on record?
Answer: 207 µM

Question: For `COc1ccc(CNc2nc(N(CCO)CCO)nc3c2ncn3C(C)C)cc1` [Compound 3, 2-diethanolamino-6-(4-methoxybenzylamino)-9-isopropylarine], which IC50 [7, 13] is on record?
Answer: 0.4 µg/mL (≈ 0.999 µM)

Question: And the “reduced the neointimal area” value ([8]; Figure 1, acute local delivery, saline vehicle alone 6%)?
Answer: about 88%

Question: With `CC(C)n1cnc2c(Nc3ccc(-c4ccccc4)cc3)nc(N(CCO)CCO)nc21` [Compound 6, 2-diethanolamino-6-(4-phenylanilino)-9-isopropylpurine] as the compound, how does the IC50 [4] read?
Answer: 1 µg/mL (≈ 2.31 µM)

Question: And the IC50 [9]?
Answer: 0.5 µg/mL (≈ 1.16 µM)

Question: And the IC50 [10]?
Answer: 4 µg/mL (≈ 9.25 µM)

Question: What about the IC50 [11] of the same compound?
Answer: 4 µg/mL (≈ 9.25 µM)

Question: What about the IC50 [5] of the same compound?
Answer: 4 µg/mL (≈ 9.25 µM)

Question: What about the IC50 [6] of the same compound?
Answer: 7 µg/mL (≈ 16.2 µM)

Question: And the IC50 ([7]; VSMC, PupVSMC cells, Table 8, read-out: IC50 (µg/ml) for Inhibition of Cell Proliferation Pup VS MC)?
Answer: 1 µg/mL (≈ 2.31 µM)

Question: For `CSc1ccc(Nc2nc(N(CCO)CCO)nc3c2ncn3C(C)C)cc1` [Compound 6A, 2-diethanolamine-6-(4-methylmercapto) anilino-9-isopropylpurine], which IC50 [1] is on record?
Answer: 12.4 µM

Question: With `Cn1cnc2c(NCc3ccccc3)nc(NCCO)nc21` [olomoucine, 2-(hydroxyethylamino)-6-benzylamino-9-methylpurine] as the compound, how does the “inhibits cell proliferation at an approximate concentration” value [12] read?
Answer: ~50 µg/mL

Question: For `CC(C)n1cnc2c(NCc3ccc(Cl)cc3)nc(NCCN)nc21` [{2-[(2-aminoethyl)amino]-9-(methylethyl)purin-6-yl}[(4-chlorophenyl)methyl]amine], which IC50 [7, 13] is on record?
Answer: 0.1 µg/mL (≈ 0.278 µM)

Question: And the “reducing the neointimal area” value ([8]; acute local delivery, dose of 5 mg/mL, saline alone 6%)?
Answer: about 90%

Question: For `CC(N)CNc1nc(NCc2ccc(Cl)cc2)c2ncn(C(C)C)c2n1` (centres unmarked) [{2-[(2-aminopropyl)amino]-9-(methylethyl)purin-6-yl}[(4-chlorophenyl)methyl]amine], which IC50 [7, 13] is on record?
Answer: 0.1 µg/mL (≈ 0.267 µM)

From patent EP1150982B1, “PURINE INHIBITORS OF CYCLIN DEPENDENT KINASE 2 AND IkB-alpha” (CV THERAPEUTICS, INC., priority 1999, dated 2000)
